Reference: ChEMBL document CHEMBL1156959, “Potent ketoamide inhibitors of HCV NS3 protease derived from quaternized P1 groups” (Bioorg Med Chem Lett, 2010)

Experiments:
Hepatitis C virus [1] = assay: Antiviral activity against Hepatitis C virus genotype 1 assessed as Inhibition of RNA replication transfected in human hepatoma cells; type: functional, Hepacivirus hominis
Hepatitis C virus [2] = assay: Inhibition of Hepatitis C virus genotype 1 NS3 protease; type: functional

| EC90 (Hepatitis C virus [1]) | SMILES | Ki (Hepatitis C virus [2]) |
| --- | --- | --- |
| 2700 nM | CC[C@@H]1C[C@@]1(NC(=O)[C@@H]1[C@@H]2[C@H](CN1C(=O)[C@@H](NC(=O)N[C@H](CN(C)S(C)(=O)=O)C(C)(C)C)C(C)(C)C)C2(C)C)C(=O)C(=O)NC1CC1 | 0.2 nM |
| – | CC(C)(C)[C@H](NC(=O)NC1(CS(=O)(=O)C(C)(C)C)CCCCC1)C(=O)N1C[C@H]2[C@@H]([C@H]1C(=O)NC1(C(=O)C(=O)NC3CC3)CC1)C2(C)C | 18 nM |
| 350 nM | CC(C)(C)NC(=O)N[C@H](C(=O)N1C[C@H]2[C@@H]([C@H]1C(=O)NC(CC1CCC1)C(=O)C(N)=O)C2(C)C)C(C)(C)C (stereo partly drawn) [BOCEPREVIR] | 14 nM |
| – | CC[C@@H]1C[C@@]1(NC(=O)[C@@H]1[C@@H]2[C@H](CN1C(=O)[C@@H](NC(=O)NC1([C@@H](C)S(=O)(=O)C(C)(C)C)CCCCC1)C1Cc3ccccc3C1)C2(C)C)C(=O)C(=O)NC1CC1 | 0.5 nM |
| – | CC[C@@H]1C[C@@]1(NC(=O)[C@@H]1[C@@H]2[C@H](CN1C(=O)[C@@H](NC(=O)NC1([C@@H](C)S(=O)(=O)C(C)(C)C)CCCCC1)C1(C)CCCCC1)C2(C)C)C(=O)C(=O)NC1CC1 | 0.95 nM |
| 400 nM | CC[C@@H]1C[C@@]1(NC(=O)[C@@H]1[C@@H]2[C@H](CN1C(=O)[C@@H](NC(=O)NC1([C@@H](C)S(=O)(=O)C(C)(C)C)CCCCC1)C1(C)CCCCC1)C2(C)C)C(=O)C(N)=O | 0.015 nM |
| – | CCC[C@@H]1C[C@@]1(NC(=O)[C@@H]1[C@@H]2[C@H](CN1C(=O)[C@@H](NC(=O)NC1(CS(=O)(=O)C(C)(C)C)CCCCC1)C(C)(C)C)C2(C)C)C(=O)C(=O)NC1CC1 | 0.7 nM |
| – | CC[C@@H]1C[C@@]1(NC(=O)[C@@H]1[C@@H]2[C@H](CN1C(=O)[C@@H](NC(=O)NC1(CS(=O)(=O)C(C)(C)C)CCCCC1)C(C)(C)C)C2(C)C)C(=O)C(=O)NC1CC1 | 0.11 nM |
| – | CC(C)(C)[C@H](NC(=O)NC1(CS(=O)(=O)C(C)(C)C)CCCCC1)C(=O)N1C[C@H]2[C@@H]([C@H]1C(=O)NC1(C(=O)C(=O)NC3CC3)CC(O)C1)C2(C)C (stereo partly drawn) | 89 nM |
| – | CCC1CC(NC(=O)[C@@H]2[C@@H]3[C@H](CN2C(=O)[C@@H](NC(=O)NC2(CS(=O)(=O)C(C)(C)C)CCCCC2)C(C)(C)C)C3(C)C)(C(=O)C(=O)NC2CC2)C1 (stereo partly drawn) | 0.19 nM |
| 1600 nM | CC[C@@H]1C[C@@]1(NC(=O)[C@@H]1[C@@H]2[C@H](CN1C(=O)[C@@H](NC(=O)N[C@H](CN1C(=O)CC(C)(C)CC1=O)C(C)(C)C)C(C)(C)C)C2(C)C)C(=O)C(N)=O | 0.058 nM |
| – | CC[C@@H]1C[C@@]1(NC(=O)[C@@H]1[C@@H]2[C@H](CN1C(=O)[C@@H](NC(=O)NC1(CS(=O)(=O)C(C)(C)C)CCCCC1)C1CCCCC1)C2(C)C)C(=O)C(=O)NC1CC1 | 0.6 nM |
| – | CC1CC(NC(=O)[C@@H]2[C@@H]3[C@H](CN2C(=O)[C@@H](NC(=O)NC2(CS(=O)(=O)C(C)(C)C)CCCCC2)C(C)(C)C)C3(C)C)(C(=O)C(=O)NC2CC2)C1 (stereo partly drawn) | 0.42 nM |
| 500 nM | CC[C@@H]1C[C@@]1(NC(=O)[C@@H]1[C@@H]2[C@H](CN1C(=O)[C@@H](NC(=O)N[C@H](CN1C(=O)CC(C)(C)CC1=O)C(C)(C)C)C(C)(C)C)C2(C)C)C(=O)C(=O)NC1CC1 | 0.082 nM |
| – | C[C@@H]1C[C@@]1(NC(=O)[C@@H]1[C@@H]2[C@H](CN1C(=O)[C@@H](NC(=O)NC1(CS(=O)(=O)C(C)(C)C)CCCCC1)C(C)(C)C)C2(C)C)C(=O)C(=O)NC1CC1 | 3 nM |
| – | CC(C)(C)[C@H](NC(=O)NC1(CS(=O)(=O)C(C)(C)C)CCCCC1)C(=O)N1C[C@H]2[C@@H]([C@H]1C(=O)NC1(C(=O)C(=O)NC3CC3)CCC1)C2(C)C | 15 nM |
| 400 nM | CC[C@@H]1C[C@@]1(NC(=O)[C@@H]1[C@@H]2[C@H](CN1C(=O)[C@@H](NC(=O)N[C@H](CN1C(=O)CC(C)(C)CC1=O)C(C)(C)C)C1(C)CCCCC1)C2(C)C)C(=O)C(N)=O | 0.023 nM |
